Like-named read-outs stand apart in the source and are kept apart here.
Tests used:
[1] = system: cofilin phosphorylation in A7r5 cells; test: In-cell Western assay of cofilin phosphorylation in A7r5 cells; type: cell-based; conditions: A7R5, A7r5 cells; read-out: Cofilin Phosphorylation In A7r5 Cells (IC50)
Procedure: A7r5 (15,000 cells/well) were plated in a clear-bottomed Packard View black 96-well plate in 100 μl of 10% FBS DMEM:F12 medium and were allowed to attach overnight. The next day, the cells were serum starved in 1% FBS DMEM medium for 2 hr and then treated with the compounds for 1 hr. […] Next day, they were washed twice with PBS-0.1% Tween 20 (PBST) washing solution for 5 min each at room temperature on the orbital shaker, followed by one wash with Licor Blocking Buffer containing 0.05% Tween-20 for 5 min on the shaker at RT. The cells were then incubated with secondary antibody goat anti-rabbit IR800 (1:500 dilution) for 1 hr at RT in the dark (covered the plate with foil) in Licor blocking buffer-containing Tween-20. Following this, cells were washed twice with PBST for 5 min each at room temperature and then once with Licor blocking buffer-containing 0.05% Tween-20. The wells were then incubated with ToPro 3 stain (nucleic acid staining), diluted 1:4000 in Licor blocking buffer or Licor blocking buffer with 0.05% Tween-20 for 30 min at room temperature in the dark. Finally the plates were washed twice with PBS and analyzed using the Odyssey LICOR Infrared Scanner.

[2] = system: p-cofilin in PC-3 prostate cancer cell lines; test: Cofilin phosphorylation Western blot in PC-3 cells stimulated by HGF; type: cell-based; conditions: HGF-stimulated PC-3 cells; 50 nM
Procedure: PC3 cells were cultured at a density of 0.5×10^6 cells/mL in 60 mm culture dishes in 10% FBS RPMI1640 media. Then, the cells were treated with DMSO and the indicated concentration of Limk inhibitors. After incubating for 24 h, the cells were rinsed with ice-cold PBS twice and collected by spinning down at 4° C. in 10,000 rpm for 5 min Cellular lysates were prepared by suspending cells in SDS sample buffer, 120 mmol/L Tris, 4% SDS, 20% glycerol, 0.1 mg/mL bromophenol blue, and 100 mmol/L DTT (pH 6.8). After brief sonication, the lysates were heated at 95° C. for 5 minutes. The cell lysates were separated by 12% SDS-PAGE and transferred to Immobilon-P membranes (Millipore Corp) Immunostaining was done using antibodies specific for phospho-Cofilin (Cell Signaling, #3313) and β-Actin (GeneScript, #A00702) antibodies and the corresponding second antibodies for whole immunoglobulins from mouse or rabbit (Amersham Biosciences). Immunoreactive proteins were detected by chemoluminescence using the Pierce ECL Western Blotting Substrate (Thermo Scientific). We quantified the actual levels of proteins by using the Multigauge ver 3.0 software (Fujifilm). The gels were stained with Coomassie Brilliant Blue R-250 (0.25%) for 1 hour and then destained (all solutions from Bio-Rad) to check the loading amount of protein samples on the gels.

[3] = molecular target: ROCK-I (Homo sapiens, UniProt Q13464); test: ROCK-I biochemical counter-screen; conditions: Table 6; read-out: Biochemical Inhibition IC50 (nM) ROCK-I
ROCK-I, sequence (Q13464 whole entry, species assumed): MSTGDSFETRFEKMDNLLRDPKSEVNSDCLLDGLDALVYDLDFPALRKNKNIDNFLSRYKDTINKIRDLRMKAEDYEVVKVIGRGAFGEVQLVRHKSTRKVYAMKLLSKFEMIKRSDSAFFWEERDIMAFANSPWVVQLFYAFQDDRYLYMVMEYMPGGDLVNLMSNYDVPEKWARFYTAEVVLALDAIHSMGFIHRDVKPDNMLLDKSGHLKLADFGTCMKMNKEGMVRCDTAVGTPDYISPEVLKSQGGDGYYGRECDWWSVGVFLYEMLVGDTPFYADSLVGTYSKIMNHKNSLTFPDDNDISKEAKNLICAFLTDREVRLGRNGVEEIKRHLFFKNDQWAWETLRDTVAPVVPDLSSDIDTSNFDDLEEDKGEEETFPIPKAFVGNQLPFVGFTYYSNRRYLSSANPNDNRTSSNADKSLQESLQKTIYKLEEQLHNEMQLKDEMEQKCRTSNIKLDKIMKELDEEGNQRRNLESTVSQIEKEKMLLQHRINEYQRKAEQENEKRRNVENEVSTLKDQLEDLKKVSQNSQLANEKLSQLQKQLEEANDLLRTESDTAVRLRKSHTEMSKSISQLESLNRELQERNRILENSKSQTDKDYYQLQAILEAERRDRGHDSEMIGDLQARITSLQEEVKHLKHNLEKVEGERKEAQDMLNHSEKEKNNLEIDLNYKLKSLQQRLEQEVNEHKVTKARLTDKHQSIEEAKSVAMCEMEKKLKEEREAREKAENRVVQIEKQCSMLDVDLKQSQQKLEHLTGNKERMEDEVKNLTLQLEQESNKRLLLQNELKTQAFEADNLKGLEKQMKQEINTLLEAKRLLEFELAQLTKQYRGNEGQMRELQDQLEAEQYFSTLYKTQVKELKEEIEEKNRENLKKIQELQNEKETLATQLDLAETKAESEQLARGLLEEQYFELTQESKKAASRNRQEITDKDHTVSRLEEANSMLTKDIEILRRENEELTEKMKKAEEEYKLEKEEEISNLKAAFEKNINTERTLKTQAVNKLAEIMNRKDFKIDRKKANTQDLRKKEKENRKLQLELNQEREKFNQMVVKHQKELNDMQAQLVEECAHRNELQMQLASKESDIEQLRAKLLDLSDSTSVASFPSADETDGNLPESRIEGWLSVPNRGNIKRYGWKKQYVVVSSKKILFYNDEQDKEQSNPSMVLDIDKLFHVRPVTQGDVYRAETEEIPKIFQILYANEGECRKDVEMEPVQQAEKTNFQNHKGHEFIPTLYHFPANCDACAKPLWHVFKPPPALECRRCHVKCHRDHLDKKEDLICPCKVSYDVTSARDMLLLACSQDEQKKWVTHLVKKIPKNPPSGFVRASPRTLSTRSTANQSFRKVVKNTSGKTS

[4] = system: PC-3 cells; test: In vitro invasion assay in PC-3 cells; type: cell-based; conditions: Homo sapiens, 48 hours, compared to the control
Procedure: Transwell chambers coated with GFR Matrigel (BD Biosciences) were used for measurement of cell invasion. The matrigel was solidified at 37° C. in a humidified incubator the day before the assay. PC3 cells (1×10^3 cells per well) were grown in serum-free RPMI1640 media in the upper side of the insert. The lower well was filled with RPMI 1640 supplemented with 10% FBS with a Limk inhibitor (1 μM). PC3 cells were incubated at 37° C. in a humidified atmosphere containing 5% CO2 for 48 h. Then transwell membrane was rinsed three times with PBS, and the cells were fixed in 2.5% EM grade glutaraldehyde for 15 min at room temperature (RT) with no shaking. After removing glutaraldehyde by aspirating, the cells were permeabilized with 0.5% Triton X-100 in PBS for 3 min at RT, and they were rinsed three times with PBS. Then, the cells were stained by Gill's hematoxylin No. 1 for 15 min at RT, and they were washed by distilled water for three times. To remove any residual stain, the cells were washed by acid alcohol for 3 minutes and then rinsed by distilled water twice. The cells were exposed with 0.04% NH4OH until a blue color is observed on the membrane and then rinsed by distilled water twice. The membranes were dried overnight, and the stained cells were visualized under Leica DMI3000B microscope.

[5] = molecular target: Limk1 (Homo sapiens, UniProt P53667); test: Limk1 biochemical assay (Reaction Biology, 10-dose IC50); design: His; purchased Reaction Biology Corporation; host or cells: insect cells
Limk1, sequence (P53667 285-638): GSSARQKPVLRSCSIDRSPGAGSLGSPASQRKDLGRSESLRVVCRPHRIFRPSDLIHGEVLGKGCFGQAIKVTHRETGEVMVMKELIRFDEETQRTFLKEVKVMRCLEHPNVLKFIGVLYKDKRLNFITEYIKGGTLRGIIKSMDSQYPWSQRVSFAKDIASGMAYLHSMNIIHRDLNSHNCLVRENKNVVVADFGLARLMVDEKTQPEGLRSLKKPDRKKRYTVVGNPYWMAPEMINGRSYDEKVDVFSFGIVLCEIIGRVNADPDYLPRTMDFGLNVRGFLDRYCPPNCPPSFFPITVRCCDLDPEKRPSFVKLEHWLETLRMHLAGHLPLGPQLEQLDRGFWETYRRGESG

[6] = system: HSV-1 (Herpes simplex virus); type: cell-based; conditions: Vero cells
[7] = system: resting CD4 T cells; test: SDF-1-mediated actin polymerization, FITC-phalloidin staining; type: cell-based, human; conditions: pre-treatment of resting CD4 T cells
Procedure: FIG. 10. Chemical and Biochemical characterization of R10015. a, Chemical structure of R10015 and its docking into the crystal structure of LIMK1 (PDB ID 3S95, Chain A). […] CEM-SS T cells treated with R10015 (100 μM) for a time course, and the phosphorylation of cofilin, LIMK, and PAK1/2 were measured by Western Blot. Levels of each protein or GAPDH were also measured for loading control. d, R10015 inhibits Jurkat T cell chemotaxis in responding to SDF-1. e, R10015. f, R10015 inhibits chemotactic actin activity. Resting CD4 T cells were treated with R10015, and then exposed to SDF-1 for a time course. Actin polymerization were measured by FITC-phalloidin staining. g, the relative intensity of F-actin staining was also plotted.
F-actin staining using phalloidin-FITC (Sigma) was carried out as described previously. Briefly, each staining was carried out using 1×10^6 cells. Cells were pelleted, fixed, and permeabilized with CytoPerm/Cytofix buffer (BD Biosciences) for 20 min at room temperature and washed with cold Perm/Wash buffer (BD Biosciences) twice, followed by staining with 5 μl of 0.3 mM FITC-labeled phalloidin (Sigma) for 30 min on ice in the dark. Cells were washed twice with cold Perm/Wash buffer, then were resuspended in 1% paraformaldehyde, and analyzed on a FACSCalibur (BD Biosciences).

[8] = system: HIV-1(Env); test: Virion release, p24 in supernatant; type: cell-based
[9] = system: HIV-1(AD8); type: cell-based; conditions: non-toxic dosages
[10] = system: EBOV (Zaire ebolavirus); type: cell-based; conditions: HFF-1 cells

Row | SMILES | IC50 [1] [nM] | inhibition of cofilin phosphorylation in PC-3 cells (Western blot) [2] | IC50 [3] [nM] | inhibition at 1 µM [4] [%] | IC50 ([5]; Table 8, read-out: LIMK1 IC50) [nM] | IC50 ([5]; read-out: Limk1 IC50) [nM] | HSV-1 infection [6] | SDF-1-mediated actin polymerization [7] | viral release [8] | R5 viral infection of memory CD4 T cells [9] | EBOV infection [10]
1 | Cc1c[nH]c2ncnc(-c3ccc(NC(=O)N(CCO)c4ccccc4)cc3)c12 [Compound 18b, 1-(2-Hydroxyethyl)-3-(4-(5-methyl-7H-pyrrolo[2,3-d]pyrimidin-4-yl)phenyl)-1-phenylurea] | 470 | significant inhibition | 5540 | 76 | – | – | – | – | – | – | –
2 | COC(=O)c1ccc2[nH]c(C3CCN(c4ncnc5[nH]cc(Cl)c45)CC3)nc2c1 [Compound R10015, Methyl 2-(1-(5-chloro-7H-pyrrolo[2,3-d]pyrimidin-4-yl)piperidin-4-yl)-1Hbenzo[d]imidazole-5-carboxylate] | – | – | – | – | 38 ± 5 | ~38 | inhibited | markedly depressed | inhibited | inhibition | inhibited

— patent publication US20190292189A1, “LIM KINASE INHIBITORS” (VIRONGY, LLC, priority 2016, published 2019)
